Tests used:
[1] = biological target: T1, iNOS (murine macrophage RAW 264.7 cells) (Mus musculus, UniProt P29477); experiment: inhibition of whole cell iNOS activity in LPS/IFN-γ stimulated RAW 264.7 cells (nitrites, Griess reaction); type: cell-based; conditions: RAW264.7, 24 hours, average of 4 wells, read-out: iNOS Inhibition, % Inhibit
T1 construct: host or cells: RAW 264.7
Description: Resultant nitrites in the TCM were measured by the Griess reaction and compared to stimulated cells incubated in the absence of test compound (0% inhibition) and unstimulated cells (100% inhibition). Each point represents the average inhibition of 4 wells±standard deviation.
Inhibition of whole cell iNOS activity by hamacanthin-A, dragmacidin and dragmacidin-D was tested to determine the specificity of the NOS inhibitory actions of these compounds.
RAW 264.7 cells were obtained from the American Type Culture Collection (Rockville, Md.) and maintained in tissue culture medium (TCM) (RPMI 1640 medium containing 100 U/ml penicillin, 100 μg/ml streptomycin, 60 μg/ml L-glutamine, 18 mM HEPES, 0.05 mg/ml gentamicin; Life Technologies, Gaithersburg, Md.) and supplemented with 10% rehatuin fetal bovine serum (Intergen Co., Purchase, N.Y.). Cells were subcultured at 3-4 day intervals, and used within 20 passages from the initial stock culture.
Test compounds were diluted in ethanol, aliquoted into appropriate wells of a 96 well microtiter plate and allowed to air dry for 1 hour at room temperature. RAW 264.7 cells were then subcultured into each well at a density of 5×10^4 cells/well in 200 μl of TCM containing lipopolysaccharide (1 ng/ml; Sigma) and interferon-γ (2 units/ml; PharMingen, San Diego, Calif.). Plates were incubated at 37° C., 5% CO2 for 24 hours. 150 μl of the TCM from each well was transferred to a second microtiter plate, 100 μl Griess reagent added to this TCM and the color intensity determined as above. Viability of the cells was determined by the methods of Mossman (Mossman, T. [1983] J. Immunol. Methods 65:55-63). Briefly, 150 μl of TCM containing 3-[4,5-dimethylthiazol-2-yl]-2,5-diphenyltetrazolium bromide (MTT, 2.5 mg/ml; Sigma) was added to each well containing the RAW 264.7 cells and incubated at 37° C., 5% CO2 for 3 hours. The medium was removed from all wells and replaced with 200 μl of acidified isopropyl alcohol (0.2% HCl). The plates were shaken for 15 minutes and the presence of the blue formazan was detected using a Spectra II spectrophotometer set at 570 nm and with a 650 nm reference filter.

calcineurin = calcineurin (Homo sapiens, UniProt Q08209); experiment: inhibition of calcineurin activity (PNPP dephosphorylation); type: biochemical; conditions: for inhibition of calcineurin activity: at concentrations below 50 μM; for IC50: PNPP substrate, 30° C., 1 hour; for potency on calcineurin compared with bNOS: comparison of IC50 for calcineurin and bNOS
Description: Inhibition of calcineurin, a calmodulin-dependent enzyme (Klee, C. B., H. Ren, X. Wang [1998] J. Biol. Chem. 273:13367-13370), by marine-derived imidazoles and indoles was tested as an indirect means of assessing the effect of these compounds on calmodulin. […] Neither hamacanthin-A nor dragmacidin were able to inhibit calcineurin activity by more than 33% at concentrations below 50 μM.
Calcineurin activity was measured by the colorimetric method based on the dephosphorylation of p-nitrophenyl phosphate (PNPP) (Greenberg, S. S., J. Xie, J. J. Spitzer, J. F. Wang, J. Lancaster, M. B. Grisham, D. R. Powers, T. D. Giles [1995] Life Sci. 57:1949-1961) in a buffer of 0.5 mM MnCl2, 1 mM dithiothreitol, 50 mM tris base (pH 7.5), 0.05 mM CaCl2, and 10 μg/ml calmodulin (Sigma). Briefly, marine-derived compounds in ethanol were transferred to 96-well plates, air dried and resuspended in the working buffer. Calcineurin was added to a final concentration of 2.75 μg protein/ml and the enzyme allowed to equilibrate at 30° C. for 10 minutes prior to the addition of substrate. PNPP was added (final concentration≈50 mM) and the reaction mixture incubated at 30° C. for 1 hour. The optical density was measured at 405 nm in a Spectra II spectrophotometer.

rat cerebral bNOS = experiment: inhibition of bNOS activity (nitrite production, Griess reaction); type: biochemical; conditions: for bNOS Inhibition, % Inhib: 15 min, average of 4 wells; for IC50: approximately, FIG. 1; for specificity/selectivity of bNOS inhibition: at the concentrations tested, conclusion in words
Description: Rat cerebral bNOS in working buffer was incubated with L-arginine and the nitrites produced after 15 minutes were measured using the Griess reaction. Results are presented as the % inhibition of bNOS activity as compared to a negative control (0% inhibition) and positive control (100% inhibition). Each point represents the average inhibition ± standard deviation of 4 wells.
Marine-derived imidazole and indole containing compounds were tested for their ability to inhibit rat cerebral NOS at a concentration range of 1.0 to 50 μM.
Evaluation of activity of bNOS was performed by measuring nitrite production using the Griess reaction (Greenberg, S. S., J. Xie, J. J. Spitzer, J. F. Wang, J. Lancaster, M. B. Grisham, D. R. Powers, T. D. Giles [1995] Life Sci. 57:1949-1961) following an incubation of purified bNOS with L-arginine according to the methods of Ohshima et al. (Ohshima, H., S. Oguchi, H. Adachi, S. Iida, H. Suzuki, T. Sugimura, H. Esumi [1992] Biochem. Biophys. Res. Comm. 183:238-244). All reactions were carried out in 96 well microtiter plates. Briefly, imidazole and indole compounds were tested in reaction buffer (80 mM HEPES, pH 7.3; 1.0 mM EDTA; 1.5 mM CaCl2) containing calmodulin (330 units/ml; Sigma Chemical Co.), dithiothreitol (1.3 mM), tetrahydrobiopterin (66 μM; Sigma), flavin adenine dinucleotide (16 μM; Sigma), and bovine brain nitric oxide synthase (1.67 units/ml; Sigma). The solutions were mixed and equilibrated at 37° C. for 2 minutes prior to the addition of L-arginine (113 μM; Sigma) and NADPH (200 μM; Sigma). Final reaction volume was 150 μl per well. The enzymatic reaction occurred at 37° C. for 15 minutes and nitrite formation detected by the addition of 100 μl of Greiss's reagent (1% sulfanilamide, 0.15% n-1-(naphthyl)-ethylenediamine dihydrochloride, 2.5% phosphoric acid; Sigma) and the color intensity determined by spectrophotometric absorbance at 540 nm (Spectra II; Tecan US Inc., Durham, N.C.).

Row | Structure (SMILES) | inhibition at 2.5 µM [1] [%] | inhibition at 5 µM [1] [%] | inhibition at 10 µM [1] [%] | inhibition at 25 µM [1] [%] | inhibition at 50 µM [1] [%] | inhibition of calcineurin activity (calcineurin) [%] | bNOS Inhibition, % Inhib (rat cerebral bNOS; 1 μM) [%] | bNOS Inhibition, % Inhib (rat cerebral bNOS; 5 μM) [%] | bNOS Inhibition, % Inhib (rat cerebral bNOS; 10 μM) [%] | bNOS Inhibition, % Inhib (rat cerebral bNOS; 50 μM) [%] | IC50 (rat cerebral bNOS) [µM] | specificity/selectivity of bNOS inhibition (rat cerebral bNOS) | IC50 (calcineurin) [µM] | potency on calcineurin compared with bNOS (calcineurin) | inhibitory effects on the production of NO (bNOS) (rat cerebral bNOS; 1.0 to 50 μM)
1 | CN1C[C@H](c2c[nH]c3c(Br)c(Br)cc(O)c23)NC[C@H]1c1c[nH]c2cc(Br)ccc12 (relative stereo) [Dragmacidin, dragmacidin] | -3.94 | -8.44 | -6.23 | 3.16 | 15.8 | ≤ 33 | 38.94 | 3.54 | 32.74 | 90.27 | ~20 | able to specifically block the activity of bNOS |  |  | 
2 | CC(c1cnc(N)[nH]1)c1ccc(O)c2[nH]cc(-c3cnc(-c4c[nH]c5cc(Br)ccc45)c(=O)[nH]3)c12 (stereo not drawn) [Dragmacidin-D, dragmacidin-D] | -3.55 | -3.42 | -0.61 | 2.34 | 26.9 |  | 16.89 | 74.22 | 96.44 | 99.56 | ~4 | able to specifically block the activity of bNOS | 10 | a more potent inhibitor of bNOS | 
3 | O=C1NC(c2c[nH]c3cc(Br)ccc23)CN=C1c1c[nH]c2cc(Br)ccc12 (stereo not drawn) [Hamacanthin-A, hamacanthin-A] | 2.6 | -0.61 | 0.69 | 0.65 | 5.54 | ≤ 33 | 35.42 | 43.33 | 75.42 | 99.58 | ~7.5 | able to specifically block the activity of bNOS |  |  | 
4 | Brc1ccc2c(-c3c[nH]c(-c4c[nH]c5ccccc45)n3)c[nH]c2c1 [Nortopsentin-C, nortopsentin-C] |  |  |  |  |  |  | 20.16 | 9.88 | 16.05 | 98.77 | ~27 | not able to selectively inhibit rat cerebral bNOS | 11.4 | a concentration lower than its IC50 for bNOS | 
5 | O=C(c1nc(-c2c[nH]c3ccccc23)c[nH]1)c1c[nH]c2cc(O)ccc12 [Topsentin, topsentin] |  |  |  |  |  |  | 5.08 | 5.47 | -0.39 | 22.66 |  | not able to selectively inhibit rat cerebral bNOS |  |  | minimal inhibitory effects

Source: patent US6087363A, “Use of imidazole and indole compounds as inhibitors of nitric oxide synthase” (Harbor Branch Oceanographic Institution, Inc., priority 1999, dated 2000)
